Data taken from US12110287B2, “Heterocyclic derivatives as Nav1.7 and Nav1.8 blockers” (RaQualia Pharma Inc., priority 2018, dated 2024).

What follows are molecules tested against Nav1.7 (Homo sapiens, UniProt Q15858) (assay: EFS-FRET assay). Settings: CHO cells expressing human Nav1.7 channels, read-out: IC50 against Nav1.7.
Assay type: cell-based
Parameters: expressed in transfected cells; host or cells: CHO (Chinese hamster ovary) cells
Procedure: This screen is used to determine the effects of compounds on human Nav1.7 channels, utilizing electrical field stimulation (EFS) system in 96-well plate format on FDSS (Hamamatsu Photonics) platform. The changes of membrane potential are monitored with FRET dye pair, DiSBAC2(3) and PTS18.
CHO (Chinese hamster ovary) cells expressing human Nav1.7 channels are grown in T225 flasks, in a 5% CO2 humidified incubator to about 80% confluence. Media composition consists of HAM/F12 with Glutamax I, 10% FCS, 100 units/mF penicillin and 100 microgram/mF hygromycin.
• Seed each cell lines (1×10^5 cells/well) into 96-well plates prior to experimentation. • Incubate at 37° C. in 5% CO2 for 24 hours. • Wash each well with assay buffer (140 mM NaCl, 4.5 mM KCl, 10 mM D-Glucose, 2 mM CaCl2, 1 mM MgCl2, 10 mM HEPES, pH 7.4 adjusted with NaOH) twice. • Add 1st loading solution containing 10 microM PTS18 and 0.06% Pluronic F-127 in assay buffer. • Incubate the plate at rt in dark for 1 hour. • Remove 1st loading solution and add 2nd loading solution containing 12.5 microM DiSBAC2(3), 1.25 mM Xylene Fast Yellow and 0.0075% Pluronic F-127 in assay buffer. • Place the plate under the dark at rt for 25 minutes. • Add compound solutions into the assay plate. • Set the assay plate in FDSS and place an EFS device on the plate. • Measure EFS-induced fluorescent response by FDSS.
The data are analyzed and reported as normalized ratios of intensities measured at […]. The process of calculating these ratios is performed as follows:
This analysis is performed using a computerized specific program designed for FDSS generated data. Fluorescence ratio values are plotted using XLfit to determine an IC50 value for each compound.

Nav1.7, sequence (Q15858 whole entry): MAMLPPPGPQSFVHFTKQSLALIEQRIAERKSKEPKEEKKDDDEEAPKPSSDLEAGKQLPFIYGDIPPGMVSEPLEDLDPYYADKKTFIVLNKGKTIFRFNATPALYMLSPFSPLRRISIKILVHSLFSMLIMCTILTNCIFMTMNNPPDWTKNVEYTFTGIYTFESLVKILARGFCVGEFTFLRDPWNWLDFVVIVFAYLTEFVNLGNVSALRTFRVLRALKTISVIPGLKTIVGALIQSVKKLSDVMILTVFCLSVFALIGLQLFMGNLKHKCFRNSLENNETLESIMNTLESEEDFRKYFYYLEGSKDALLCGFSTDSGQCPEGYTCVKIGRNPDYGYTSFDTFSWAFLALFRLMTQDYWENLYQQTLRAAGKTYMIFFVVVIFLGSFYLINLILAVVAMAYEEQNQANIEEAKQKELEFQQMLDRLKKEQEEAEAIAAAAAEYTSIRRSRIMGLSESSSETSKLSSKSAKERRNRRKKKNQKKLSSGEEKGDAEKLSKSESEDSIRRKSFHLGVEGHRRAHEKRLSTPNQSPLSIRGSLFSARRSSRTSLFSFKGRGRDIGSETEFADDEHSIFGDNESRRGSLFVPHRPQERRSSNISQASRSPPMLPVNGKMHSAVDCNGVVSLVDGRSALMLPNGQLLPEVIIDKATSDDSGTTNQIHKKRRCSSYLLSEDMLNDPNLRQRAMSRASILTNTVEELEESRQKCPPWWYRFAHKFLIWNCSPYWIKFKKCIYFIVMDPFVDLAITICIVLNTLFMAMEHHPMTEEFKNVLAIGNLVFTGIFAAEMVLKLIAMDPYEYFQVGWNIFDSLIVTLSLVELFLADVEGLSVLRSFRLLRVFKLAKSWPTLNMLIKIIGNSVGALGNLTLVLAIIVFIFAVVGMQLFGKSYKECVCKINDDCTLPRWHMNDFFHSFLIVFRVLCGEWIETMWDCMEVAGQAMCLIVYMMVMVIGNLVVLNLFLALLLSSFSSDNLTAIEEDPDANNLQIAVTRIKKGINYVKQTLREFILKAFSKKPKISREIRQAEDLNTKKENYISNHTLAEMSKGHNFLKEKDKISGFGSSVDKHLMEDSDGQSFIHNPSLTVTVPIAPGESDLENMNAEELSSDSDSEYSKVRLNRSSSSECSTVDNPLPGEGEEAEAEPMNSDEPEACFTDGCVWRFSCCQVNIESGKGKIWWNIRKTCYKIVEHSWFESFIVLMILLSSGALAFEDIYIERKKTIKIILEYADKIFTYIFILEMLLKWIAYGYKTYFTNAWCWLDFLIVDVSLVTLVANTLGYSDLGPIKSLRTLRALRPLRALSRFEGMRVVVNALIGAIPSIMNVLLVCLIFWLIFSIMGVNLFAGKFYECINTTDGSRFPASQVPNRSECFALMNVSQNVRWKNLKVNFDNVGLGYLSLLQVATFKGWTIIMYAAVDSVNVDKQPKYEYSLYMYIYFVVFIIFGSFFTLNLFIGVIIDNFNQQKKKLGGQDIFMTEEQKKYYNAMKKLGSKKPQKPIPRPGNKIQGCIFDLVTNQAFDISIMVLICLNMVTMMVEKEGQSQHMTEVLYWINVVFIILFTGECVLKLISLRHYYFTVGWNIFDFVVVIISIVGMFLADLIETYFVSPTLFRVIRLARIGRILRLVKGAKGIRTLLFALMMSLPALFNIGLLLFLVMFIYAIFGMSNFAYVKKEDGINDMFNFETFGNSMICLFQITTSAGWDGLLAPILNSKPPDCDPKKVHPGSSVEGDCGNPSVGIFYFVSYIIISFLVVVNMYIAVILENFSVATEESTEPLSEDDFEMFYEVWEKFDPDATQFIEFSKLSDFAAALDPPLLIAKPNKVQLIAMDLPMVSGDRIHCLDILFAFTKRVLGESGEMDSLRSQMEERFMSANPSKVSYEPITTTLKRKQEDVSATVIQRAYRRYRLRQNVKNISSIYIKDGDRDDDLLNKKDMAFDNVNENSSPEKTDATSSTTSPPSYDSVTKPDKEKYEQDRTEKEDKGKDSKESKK

| SMILES | IC50 [nM] |
| --- | --- |
| CC(=O)Nc1cc(C(=O)N[C@@H]2CCN(c3ncc(C(F)(F)F)cc3Cl)C2)ccn1 [Example 2] | < 500 |
| CC(=O)Nc1cc(C(=O)N[C@@H]2CCCN(c3ncc(C(F)(F)F)cc3Cl)C2)ccn1 [Example 5] | < 500 |
| CCC(=O)Nc1cc(C(=O)N[C@@H]2CCCN(c3ncc(C(F)(F)F)cc3Cl)C2)ccn1 [Example 6] | < 500 |
| CC(=O)Nc1cc(C(=O)NC2CN(c3ncc(C(F)(F)F)cc3Cl)C2)ccn1 [Example 8] | < 500 |
| CC(C)C(=O)Nc1cc(C(=O)N[C@@H]2CCN(c3ncc(C(F)(F)F)cc3Cl)C2)ccn1 [Example 10] | < 500 |
| CCC(=O)Nc1cc(C(=O)N[C@@H]2CCN(c3ncc(C(F)(F)F)cc3Cl)C2)cc(C)n1 [Example 11] | < 500 |
| CCC(=O)Nc1cc(C(=O)N[C@@H]2CCN(c3ccc(C(F)(F)F)cn3)C2)ccn1 [Example 16] | < 500 |
| CCC(=O)Nc1nccc(C(=O)N[C@@H]2CCN(c3ncc(C(F)(F)F)cc3Cl)C2)n1 [Example 20] | < 500 |
| O=C(N[C@@H]1CCN(c2ncc(C(F)(F)F)cc2Cl)C1)c1ccnc(NC(=O)C2CC2)n1 [Example 21] | < 500 |
| CC(C)C(=O)Nc1nccc(C(=O)N[C@@H]2CCN(c3ncc(C(F)(F)F)cc3Cl)C2)n1 [Example 22] | < 500 |
| O=C(N[C@@H]1CCN(c2ncc(C(F)(F)F)cc2Cl)C1)c1ccnc(NC(=O)C2CCC2)n1 [Example 23] | < 500 |
| CC(=O)Nc1nccc(C(=O)N[C@@H]2CCCN(c3ncc(C(F)(F)F)cc3Cl)C2)n1 [Example 24] | < 500 |
| CCC(=O)Nc1nccc(C(=O)N[C@@H]2CCCN(c3ncc(C(F)(F)F)cc3Cl)C2)n1 [Example 25] | < 500 |
| O=C(N[C@@H]1CCCN(c2ncc(C(F)(F)F)cc2Cl)C1)c1ccnc(NC(=O)C2CC2)n1 [Example 26] | < 500 |
| CC(C)C(=O)Nc1nccc(C(=O)N[C@@H]2CCCN(c3ncc(C(F)(F)F)cc3Cl)C2)n1 [Example 27] | < 500 |
| O=C(N[C@@H]1CCCN(c2ncc(C(F)(F)F)cc2Cl)C1)c1ccnc(NC(=O)C2CCC2)n1 [Example 28] | < 500 |
| COc1cc(C(F)(F)F)cnc1N1CC[C@@H](NC(=O)c2ccnc(NC(C)=O)c2)C1 [Example 37] | < 500 |
| CCC(=O)Nc1cc(C(=O)N[C@@H]2CCN(c3ncc(C(F)(F)F)cc3OC)C2)ccn1 [Example 38] | < 500 |
| COc1cc(C(F)(F)F)cnc1N1CC[C@@H](NC(=O)c2cc(C)nc(NC(C)=O)c2)C1 [Example 39] | < 500 |
| CC(=O)Nc1cc(C(=O)NC2CCC(C)N(c3ncc(C(F)(F)F)cc3Cl)C2)ccn1 (centres unmarked) [Example 41] | < 500 |
| CCC(=O)Nc1cc(C(=O)NC2CCC(C)N(c3ncc(C(F)(F)F)cc3Cl)C2)ccn1 (centres unmarked) [Example 42] | < 500 |
| CC(=O)Nc1cc(C(=O)N[C@@H]2CCN(c3ncc(C(F)(F)F)cc3C)C2)ccn1 [Example 46] | < 500 |

| SMILES | IC50 [nM] |
| --- | --- |
| Cc1cc(C(F)(F)F)cnc1N1CC[C@@H](NC(=O)c2ccnc(NC(=O)C3CC3)c2)C1 [Example 47] | < 500 |
| CCC(=O)Nc1cc(C(=O)N[C@@H]2CCN(c3ncc(C(F)(F)F)cc3Cl)C2)ccn1 [Example 48] | < 500 |
| CC(=O)Nc1cc(C(=O)N[C@@H]2CCN(c3ncc(C(F)(F)F)cc3Cl)C2)cc(C)n1 [Example 49] | < 500 |
| CC(C)C(=O)Nc1cc(C(=O)NC2CN(c3ncc(C(F)(F)F)cc3Cl)C2)ccn1 [Example 50] | < 500 |
| CC(=O)Nc1cc(C(=O)NC2CN(c3ncc(C(F)(F)F)cc3Cl)C2)cc(C)n1 [Example 51] | < 500 |
| Cc1cc(C(=O)NC2CN(c3ncc(C(F)(F)F)cc3Cl)C2)cc(NC(=O)C(C)C)n1 [Example 52] | < 500 |
| Cc1cc(C(=O)NC2CN(c3ncc(C(F)(F)F)cc3Cl)C2)nc(NC(=O)C2CC2)n1 [Example 53] | < 500 |
| O=C(N[C@@H]1CCCN(c2ccc(C(F)(F)F)cc2Cl)C1)c1ccnc(NC(=O)C2CC2)c1 [Example 55] | < 500 |
| Cc1cc(C(=O)N[C@@H]2CCCN(c3ccc(C(F)(F)F)cc3Cl)C2)cc(NC(=O)C2CC2)n1 [Example 56] | < 500 |
| CC(C)C(=O)Nc1cc(C(=O)N[C@@H]2CCCN(c3ccc(C(F)(F)F)cc3Cl)C2)ccn1 [Example 57] | < 500 |
| Cc1cc(C(=O)N[C@@H]2CCCN(c3ccc(C(F)(F)F)cc3Cl)C2)cc(NC(=O)C(C)C)n1 [Example 58] | < 500 |
| O=C(N[C@@H]1CCCN(c2ncc(C(F)(F)F)cc2Br)C1)c1ccnc(NC(=O)C2CC2)c1 [Example 59] | < 500 |
| Cc1cc(C(=O)N[C@@H]2CCCN(c3ncc(C(F)(F)F)cc3Br)C2)cc(NC(=O)C2CC2)n1 [Example 60] | < 500 |
| Cc1cc(C(=O)N[C@@H]2CCCN(c3ncc(C(F)(F)F)cc3C)C2)cc(NC(=O)C(C)C)n1 [Example 73] | < 500 |
| O=C(N[C@@H]1CCN(c2ccc(C(F)(F)F)cc2Cl)C1)c1ccnc(NC(=O)C2CC2)c1 [Example 77] | < 500 |
| Cc1cc(C(=O)N[C@@H]2CCN(c3ncc(C(F)(F)F)cc3Cl)C2)cc(NC(=O)C2CC2)n1 [Example 78] | < 500 |
| CC(C)C(=O)Nc1cc(C(=O)N[C@@H]2CCN(c3ccc(C(F)(F)F)cc3Cl)C2)ccn1 [Example 79] | < 500 |
| Cc1cc(C(=O)N[C@@H]2CCN(c3ccc(C(F)(F)F)cc3Cl)C2)cc(NC(=O)C(C)C)n1 [Example 80] | < 500 |
| COc1cc(C(F)(F)F)cnc1N1CC[C@@H](NC(=O)c2ccnc(NC(=O)C3CC3)c2)C1 [Example 81] | < 500 |
| COc1cc(C(F)(F)F)cnc1N1CC[C@@H](NC(=O)c2cc(C)nc(NC(=O)C3CC3)c2)C1 [Example 82] | < 500 |
| COc1cc(C(F)(F)F)cnc1N1CC[C@@H](NC(=O)c2ccnc(NC(=O)C(C)C)c2)C1 [Example 83] | < 500 |
| COc1cc(C(F)(F)F)cnc1N1CC[C@@H](NC(=O)c2cc(C)nc(NC(=O)C(C)C)c2)C1 [Example 84] | < 500 |

| SMILES | IC50 [nM] |
| --- | --- |
| CCCC(=O)Nc1cc(C(=O)N[C@@H]2CCN(c3ncc(C(F)(F)F)cc3OC)C2)ccn1 [Example 88] | < 500 |
| O=C(N[C@@H]1CCCN(c2ncc(OCC(F)(F)F)cc2Cl)C1)c1ccnc(NC(=O)C2CC2)c1 [Example 92] | < 500 |
| O=C(N[C@@H]1CCN(c2ncc(OCC(F)(F)F)cc2Cl)C1)c1ccnc(NC(=O)C2CC2)c1 [Example 93] | < 500 |
| CCC(=O)Nc1cc(C(=O)N[C@@H]2CCCN(c3ncc(OCC(F)(F)F)cc3Cl)C2)ccn1 [Example 95] | < 500 |
| CCC(=O)Nc1cc(C(=O)N[C@@H]2CCN(c3ncc(OCC(F)(F)F)cc3Cl)C2)ccn1 [Example 96] | < 500 |
| O=C(N[C@@H]1CCCN(c2ncc(OCc3ccc(F)cc3)cc2Cl)C1)c1ccnc(NC(=O)C2CC2)c1 [Example 99] | < 500 |
| Cc1cc(C(=O)N[C@@H]2CCN(c3ncc(C(F)(F)F)cc3Cl)C2)cc(NC(=O)C(C)C)n1 [Example 104] | < 500 |
| CCC(=O)Nc1cc(C(=O)N[C@H]2CN(c3ncc(C(F)(F)F)cc3Cl)CC23CC3)cc(C)n1 [Example 107] | < 500 |
| CC(C)C(=O)Nc1cc(C(=O)N[C@H]2CN(c3ncc(C(F)(F)F)cc3Cl)CC23CC3)ccn1 [Example 109] | < 500 |
| Cc1cc(C(=O)N[C@@H]2CCCN(c3ncc(C(F)(F)F)cc3Cl)C2)nc(NC(=O)C2CC2)n1 [Example 114] | < 500 |
| CCC(=O)Nc1cc(C(=O)N[C@H]2CN(c3ncc(C(F)(F)F)cc3Cl)CC23CC3)ccn1 [Example 116] | < 500 |
| CC(=O)Nc1cc(C(=O)N[C@H]2CN(c3ncc(C(F)(F)F)cc3Cl)CC23CC3)cc(C)n1 [Example 117] | < 500 |
| Cc1cc(C(=O)N[C@H]2CN(c3ncc(C(F)(F)F)cc3Cl)CC23CC3)cc(NC(=O)C(C)C)n1 [Example 118] | < 500 |
| O=C(N[C@H]1CN(c2ncc(C(F)(F)F)cc2Cl)CC12CC2)c1ccnc(NC(=O)C2CC2)n1 [Example 119] | < 500 |
| CC(=O)Nc1cc(C(=O)N[C@@H]2CCN(c3ccc(C(F)(F)F)cc3)C2)ccn1 [Example 120] | < 500 |
| O=C(N[C@@H]1CCN(c2ccc(C(F)(F)F)cc2F)C1)c1ccnc(NC(=O)C2CC2)n1 [Example 121] | < 500 |
| CC(C)C(=O)Nc1cc(C(=O)N[C@@H]2CCN(c3ccc(C(F)(F)F)c(F)c3)C2)ccn1 [Example 123] | < 500 |
| O=C(N[C@@H]1CCCN(c2ccc(OC(F)(F)F)cc2Cl)C1)c1ccnc(NC(=O)C2CC2)c1 [Example 125] | < 500 |
| O=C(N[C@@H]1CCCN(c2ccc(OC(F)(F)F)cc2Cl)C1)c1ccnc(NC(=O)C2CC2)n1 [Example 126] | < 500 |
| CC(C)C(=O)Nc1cc(C(=O)N[C@@H]2CCCN(c3ccc(OC(F)(F)F)cc3Cl)C2)ccn1 [Example 127] | < 500 |
| Cc1cc(C(=O)N[C@@H]2CCCN(c3ccc(OC(F)(F)F)cc3Cl)C2)cc(NC(=O)C(C)C)n1 [Example 128] | < 500 |
